{"source": "patent US12133530B2", "about": "“Herbicidal mixtures comprising L-glufosinate or its salt and at least one VLCFA inhibitor” (BASF SE, priority 2017, dated 2024)", "key": {"[1]": {"tested_on": "ABUTH (Abutilon theophrasti)", "test": "Post-emergence greenhouse pot test, herbicidal activity (scale 0 to 100)", "format": "in vivo", "description": "(§1) However, the weed control afforded by the compounds, mixtures or compositions is not limited to these species. The analysis of synergism or antagonism between the mixtures or compositions was determined using Colby's equation.\n(§2) The culture containers used were plastic flowerpots containing loamy sand with approximately 3.0% of humus as the substrate. The seeds of the test plants were sown separately for each species and/or resistant biotype. For the pre-emergence treatment, the active ingredients, which had been suspended or emulsified in water, were applied directly after sowing by means of finely distributing nozzles. The containers were irrigated gently to promote germination and growth and subsequently covered with transparent plastic hoods until the plants had rooted. This cover caused uniform germination of the test plants, unless this had been impaired by the active ingredients. For the post-emergence treatment, the test plants were first grown to a height of 3 to 15 cm, depending on the plant habit, and only then treated with the active ingredients which had been suspended or emulsified in water. For this purpose, the test plants were either sown directly and grown in the same containers, or they were first grown separately as seedlings and transplanted into the test containers a few days prior to treatment. Depending on the species, the plants were kept at 10-25° C. or 20-35° C., respectively. The test period extended to 20 days after treatment. During this time, the plants were tended, and their response to the individual treatments was evaluated. The evaluation was carried out by using a scale from 0 to 100. 100 means no emergence of the plants or complete destruction of at least the above-ground parts, and 0 means no damage, or normal course of growth. Data shown are the mean of two replications."}, "AVEFA (Avena fatua)": {"tested_on": "AVEFA (Avena fatua)", "test": "Post-emergence greenhouse pot test, herbicidal activity (scale 0 to 100)", "format": "in vivo", "conditions": "scale 0-100", "description": "as §1, §2"}}, "data": [{"compound": "CP(=O)(O)CC[C@H](N)C(=O)O", "note": "[L-Glufosinate, (2S)-2-amino-4-[hydroxy(methyl)phosphinoyl]butyric acid]", "values": [{"measurement": "Herbicidal activity against ABUTH, Found", "setting": "[1]; L-Glufosinate 75 g ai/ha alone, scale 0-100", "result": 0}, {"measurement": "Herbicidal activity against ABUTH, Found", "setting": "[1]; L-Glufosinate 150 g ai/ha alone, scale 0-100", "result": 55}, {"measurement": "Herbicidal activity against ABUTH, Found", "setting": "[1]; L-Glufosinate 200 g ai/ha alone, scale 0-100, mean of two replications", "result": 65}, {"measurement": "Herbicidal activity against AVEFA, Found", "setting": "AVEFA (Avena fatua); L-Glufosinate 75 g ai/ha alone", "result": 0}, {"measurement": "Herbicidal activity against AVEFA, Found", "setting": "AVEFA (Avena fatua); L-Glufosinate 150 g ai/ha alone", "result": 0}]}, {"compound": "CCOCCN(C(=O)CCl)C(=C(C)C)c1ccccc1", "note": "[Pethoxamid, pethoxamid]", "values": [{"measurement": "Herbicidal activity against ABUTH, Found", "setting": "[1]; Pethoxamid 50 g ai/ha alone, scale 0-100", "result": 0}, {"measurement": "Herbicidal activity against ABUTH, Found", "setting": "[1]; Pethoxamid 100 g ai/ha alone, scale 0-100", "result": 0}, {"measurement": "Herbicidal activity against AVEFA, Found", "setting": "AVEFA (Avena fatua); Pethoxamid 50 g ai/ha alone", "result": 0}, {"measurement": "Herbicidal activity against AVEFA, Found", "setting": "AVEFA (Avena fatua); Pethoxamid 100 g ai/ha alone", "result": 0}]}, {"compound": "Cn1nc(C(F)(F)F)c(CS(=O)(=O)C2=NOC(C)(C)C2)c1OC(F)F", "note": "[Pyroxasulfone, pyroxasulfone]", "values": [{"measurement": "Herbicidal activity against ABUTH, Found", "setting": "[1]; Pyroxasulfone 25 g ai/ha alone, scale 0-100", "result": 40}, {"measurement": "Herbicidal activity against ABUTH, Found", "setting": "[1]; Pyroxasulfone 50 g ai/ha alone, scale 0-100", "result": 70}]}]}
